In paper PMC5791972 (PLoS ONE, 2018):
“Also recorded” adds a separate entry of the source. Like-named read-outs stand apart in the source and are kept apart here.

Assays:
C57BL/6J mice = assay: Pavlovian fear learning and memory, non-manipulated mice; format: in vivo, mouse; conditions: 1 or 3 mg/kg oral, 2 h before
α2C (h) = biological target: T1, α2C (h) (Homo sapiens, UniProt P18825); format: binding; conditions: 1 h
T1 construct: host or cells: CHO cells
T1 sequence (P18825 1-462): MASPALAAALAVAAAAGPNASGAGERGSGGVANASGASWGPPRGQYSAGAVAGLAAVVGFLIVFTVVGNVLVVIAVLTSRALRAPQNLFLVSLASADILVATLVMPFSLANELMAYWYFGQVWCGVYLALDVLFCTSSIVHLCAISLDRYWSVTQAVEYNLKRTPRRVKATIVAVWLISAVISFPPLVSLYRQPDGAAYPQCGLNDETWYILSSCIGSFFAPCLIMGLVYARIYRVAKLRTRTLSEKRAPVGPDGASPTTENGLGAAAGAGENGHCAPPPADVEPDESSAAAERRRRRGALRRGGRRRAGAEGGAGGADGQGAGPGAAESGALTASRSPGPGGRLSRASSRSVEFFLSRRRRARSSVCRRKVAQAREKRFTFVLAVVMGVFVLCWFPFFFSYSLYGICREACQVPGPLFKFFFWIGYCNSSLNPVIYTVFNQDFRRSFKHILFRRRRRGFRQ

GABAB(1b) (h) = GABAB(1b) (h) (Homo sapiens, UniProt Q9UBS5); assay: biochemical
GABAB(1b) (h), sequence (Q9UBS5 1-844 isoform Q9UBS5-2): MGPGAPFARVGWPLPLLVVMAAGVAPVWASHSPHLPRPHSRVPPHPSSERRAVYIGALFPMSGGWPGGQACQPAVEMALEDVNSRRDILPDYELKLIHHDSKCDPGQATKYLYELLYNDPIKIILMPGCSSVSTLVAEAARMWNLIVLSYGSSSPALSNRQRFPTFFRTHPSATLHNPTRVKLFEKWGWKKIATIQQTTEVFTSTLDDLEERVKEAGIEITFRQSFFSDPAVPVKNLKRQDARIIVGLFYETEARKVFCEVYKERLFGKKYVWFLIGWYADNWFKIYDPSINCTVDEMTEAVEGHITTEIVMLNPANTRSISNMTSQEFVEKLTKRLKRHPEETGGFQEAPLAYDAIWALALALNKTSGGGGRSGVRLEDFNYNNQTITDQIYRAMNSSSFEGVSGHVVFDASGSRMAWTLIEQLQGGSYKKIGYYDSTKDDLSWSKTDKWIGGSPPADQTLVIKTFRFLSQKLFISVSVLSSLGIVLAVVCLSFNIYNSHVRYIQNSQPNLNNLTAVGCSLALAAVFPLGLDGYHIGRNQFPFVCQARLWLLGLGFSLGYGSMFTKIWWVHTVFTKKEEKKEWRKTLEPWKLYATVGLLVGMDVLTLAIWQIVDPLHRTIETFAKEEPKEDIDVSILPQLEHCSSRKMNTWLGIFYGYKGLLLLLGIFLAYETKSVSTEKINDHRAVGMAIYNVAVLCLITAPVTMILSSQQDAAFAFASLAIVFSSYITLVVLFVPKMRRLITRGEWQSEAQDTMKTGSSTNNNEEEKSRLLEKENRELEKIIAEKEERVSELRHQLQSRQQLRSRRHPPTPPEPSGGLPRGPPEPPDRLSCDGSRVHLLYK
GABAB(1b) (h), sequence (O75899 42-941 partner): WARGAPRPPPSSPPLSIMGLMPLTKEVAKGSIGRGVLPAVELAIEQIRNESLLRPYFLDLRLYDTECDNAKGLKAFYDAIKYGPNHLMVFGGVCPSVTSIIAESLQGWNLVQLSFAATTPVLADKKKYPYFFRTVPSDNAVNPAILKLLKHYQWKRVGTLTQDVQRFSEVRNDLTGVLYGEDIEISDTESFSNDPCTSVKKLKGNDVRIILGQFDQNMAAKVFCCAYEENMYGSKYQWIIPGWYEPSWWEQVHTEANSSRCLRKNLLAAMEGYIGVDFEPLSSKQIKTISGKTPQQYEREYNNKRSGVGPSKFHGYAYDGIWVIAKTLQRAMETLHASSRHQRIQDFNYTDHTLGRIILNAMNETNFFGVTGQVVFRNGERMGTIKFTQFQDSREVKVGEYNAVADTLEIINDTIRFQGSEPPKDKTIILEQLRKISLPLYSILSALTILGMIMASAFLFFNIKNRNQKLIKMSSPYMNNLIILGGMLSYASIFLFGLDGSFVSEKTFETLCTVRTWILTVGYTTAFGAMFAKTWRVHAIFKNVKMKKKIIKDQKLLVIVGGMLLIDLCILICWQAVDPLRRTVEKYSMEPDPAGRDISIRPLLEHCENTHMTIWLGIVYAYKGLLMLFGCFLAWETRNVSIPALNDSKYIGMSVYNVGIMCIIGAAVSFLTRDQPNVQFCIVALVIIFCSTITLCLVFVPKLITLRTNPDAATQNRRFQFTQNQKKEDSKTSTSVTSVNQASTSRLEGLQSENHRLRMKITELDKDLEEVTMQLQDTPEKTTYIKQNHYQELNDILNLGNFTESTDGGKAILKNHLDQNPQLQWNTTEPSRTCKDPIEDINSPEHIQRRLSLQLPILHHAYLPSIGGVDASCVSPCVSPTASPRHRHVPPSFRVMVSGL

H4 (h) = biological target: T2, H4 (h) (Homo sapiens, UniProt Q9H3N8); format: binding; conditions: 1.0E-06 M
T2 construct: host or cells: HEK-293 cells
T2 sequence (Q9H3N8 whole entry): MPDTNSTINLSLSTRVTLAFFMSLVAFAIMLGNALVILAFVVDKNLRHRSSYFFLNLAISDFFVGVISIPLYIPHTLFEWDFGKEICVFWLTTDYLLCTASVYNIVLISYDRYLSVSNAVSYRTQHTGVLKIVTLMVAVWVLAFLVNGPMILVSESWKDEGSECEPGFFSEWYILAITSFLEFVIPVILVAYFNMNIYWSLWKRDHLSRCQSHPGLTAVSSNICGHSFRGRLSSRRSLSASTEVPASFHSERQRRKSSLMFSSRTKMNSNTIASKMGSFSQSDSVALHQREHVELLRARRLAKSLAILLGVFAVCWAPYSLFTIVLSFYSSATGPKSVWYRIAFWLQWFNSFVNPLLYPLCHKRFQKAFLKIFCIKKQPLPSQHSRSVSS

TNF-α (h) = format: binding, human; conditions: 1.0E-06 M
human TRPC4 (hTRPC4) = biological target: T3, human TRPC4 (hTRPC4) (Homo sapiens, UniProt Q9UBN4); assay: Fluorometric calcium influx assay; format: cell-based; conditions: 1 pM to 1 μM, n = 8
T3 construct: The cDNAs for various full-length ion channels were subcloned into pcDNA5/TO; expressed in transfected cells; M1R co-expressed in the calcium assay, M2R in patch clamp
T3 sequence (Q9UBN4 1-893 isoform Q9UBN4-2): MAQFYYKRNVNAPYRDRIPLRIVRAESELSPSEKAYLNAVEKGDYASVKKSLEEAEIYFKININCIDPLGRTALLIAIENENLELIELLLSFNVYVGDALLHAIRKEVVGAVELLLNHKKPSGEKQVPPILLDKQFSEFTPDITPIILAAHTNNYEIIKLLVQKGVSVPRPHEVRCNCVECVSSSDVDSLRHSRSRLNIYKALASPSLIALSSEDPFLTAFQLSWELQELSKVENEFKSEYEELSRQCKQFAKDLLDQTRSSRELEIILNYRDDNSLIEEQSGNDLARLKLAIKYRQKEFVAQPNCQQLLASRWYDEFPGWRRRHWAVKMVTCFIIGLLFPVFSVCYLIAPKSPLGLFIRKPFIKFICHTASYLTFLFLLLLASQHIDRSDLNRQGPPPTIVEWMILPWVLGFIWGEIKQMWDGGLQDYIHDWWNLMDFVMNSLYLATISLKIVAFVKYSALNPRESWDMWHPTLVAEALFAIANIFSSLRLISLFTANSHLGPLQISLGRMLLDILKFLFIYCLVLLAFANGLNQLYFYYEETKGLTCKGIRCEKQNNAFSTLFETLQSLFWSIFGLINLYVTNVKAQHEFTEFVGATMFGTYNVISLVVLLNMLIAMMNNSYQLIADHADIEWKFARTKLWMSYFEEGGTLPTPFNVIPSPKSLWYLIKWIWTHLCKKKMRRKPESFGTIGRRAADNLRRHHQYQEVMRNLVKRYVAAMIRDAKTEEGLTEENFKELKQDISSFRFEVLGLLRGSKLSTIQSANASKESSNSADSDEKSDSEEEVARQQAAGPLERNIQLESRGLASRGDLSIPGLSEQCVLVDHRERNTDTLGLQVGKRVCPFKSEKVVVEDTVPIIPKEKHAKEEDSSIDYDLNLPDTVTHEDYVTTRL

5-HT1B = 5-HT1B (Rattus norvegicus, UniProt P28564); assay: biochemical
5-HT1B, sequence (P28564 whole entry): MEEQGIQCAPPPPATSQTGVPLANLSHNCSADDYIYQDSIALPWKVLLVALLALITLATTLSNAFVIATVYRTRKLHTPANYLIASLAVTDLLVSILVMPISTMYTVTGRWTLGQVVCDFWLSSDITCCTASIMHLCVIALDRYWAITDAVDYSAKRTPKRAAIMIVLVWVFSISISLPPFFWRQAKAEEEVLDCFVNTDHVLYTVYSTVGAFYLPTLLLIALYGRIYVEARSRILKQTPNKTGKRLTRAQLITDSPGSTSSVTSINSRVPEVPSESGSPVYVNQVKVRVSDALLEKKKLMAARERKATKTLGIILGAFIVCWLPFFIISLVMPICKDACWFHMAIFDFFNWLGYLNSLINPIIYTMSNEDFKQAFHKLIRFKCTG

MT1 (ML1A) (h) = biological target: T4, MT1 (ML1A) (h) (Homo sapiens, UniProt P48039); format: binding; conditions: 1.0E-06 M
T4 construct: host or cells: CHO cells
T4 sequence (P48039 whole entry): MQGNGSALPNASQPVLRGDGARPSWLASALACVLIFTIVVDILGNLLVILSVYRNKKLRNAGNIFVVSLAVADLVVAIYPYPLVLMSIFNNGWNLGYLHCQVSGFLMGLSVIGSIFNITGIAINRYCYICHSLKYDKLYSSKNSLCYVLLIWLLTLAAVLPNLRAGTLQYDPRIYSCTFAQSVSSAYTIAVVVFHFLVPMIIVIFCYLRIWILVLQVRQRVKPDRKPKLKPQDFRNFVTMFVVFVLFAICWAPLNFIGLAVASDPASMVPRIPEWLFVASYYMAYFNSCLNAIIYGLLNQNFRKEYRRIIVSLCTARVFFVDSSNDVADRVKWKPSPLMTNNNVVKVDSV

5-HT2A (h) = biological target: T5, 5-HT2A (h) (Homo sapiens, UniProt P28223); format: binding
T5 construct: host or cells: HEK-293 cells
T5 sequence (P28223 whole entry): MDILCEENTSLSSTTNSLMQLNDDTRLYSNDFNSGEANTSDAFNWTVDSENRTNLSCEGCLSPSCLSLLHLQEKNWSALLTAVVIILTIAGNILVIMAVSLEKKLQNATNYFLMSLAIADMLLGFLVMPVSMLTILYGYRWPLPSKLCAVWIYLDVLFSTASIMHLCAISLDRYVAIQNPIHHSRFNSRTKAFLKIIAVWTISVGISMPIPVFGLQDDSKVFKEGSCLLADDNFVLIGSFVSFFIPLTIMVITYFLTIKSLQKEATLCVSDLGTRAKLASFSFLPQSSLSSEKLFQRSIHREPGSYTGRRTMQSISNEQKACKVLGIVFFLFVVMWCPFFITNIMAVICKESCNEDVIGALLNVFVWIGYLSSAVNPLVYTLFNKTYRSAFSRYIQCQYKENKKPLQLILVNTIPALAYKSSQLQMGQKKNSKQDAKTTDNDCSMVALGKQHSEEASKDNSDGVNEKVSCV

A1 (h) = biological target: T6, A1 (h) (Homo sapiens, UniProt P30542); format: binding
T6 sequence (P30542 1-326): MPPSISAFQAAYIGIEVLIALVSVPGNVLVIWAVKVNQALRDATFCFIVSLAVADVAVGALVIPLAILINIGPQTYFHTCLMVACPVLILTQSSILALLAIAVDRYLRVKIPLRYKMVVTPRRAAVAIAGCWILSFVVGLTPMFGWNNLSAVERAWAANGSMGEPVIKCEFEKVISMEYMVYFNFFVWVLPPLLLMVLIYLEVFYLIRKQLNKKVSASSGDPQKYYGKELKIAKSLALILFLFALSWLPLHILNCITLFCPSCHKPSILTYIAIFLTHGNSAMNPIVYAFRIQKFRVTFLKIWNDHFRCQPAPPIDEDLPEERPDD

In the case of `Cn1c(=O)n(CCCO)c(=O)c2c1nc(Oc1cccc(Cl)c1)n2Cc1ccc(Cl)cc1` [HC-070], the “CS-US fear learning (freezing)” value (C57BL/6J mice) is reported as “without an effect; also recorded: did not affect fear learning”, the “fear memory expression to the CS” value (C57BL/6J mice) is reported as “no drug effect” and the “fear memory expression to the context” value (C57BL/6J mice) is reported as “without effect; also recorded: no drug effect”. For the same compound, the inhibition at 1 µM (α2C (h); read-out: % Inhibition 1st) was 7.9%, the inhibition at 1 µM (α2C (h); read-out: % Inhibition 2nd) was -1% and the inhibition at 1 µM (α2C (h); read-out: % Inhibition Mean) was 3.5%.

With `Cn1c(=O)n(CCCO)c(=O)c2c1nc(Oc1cccc(OC(F)(F)F)c1)n2Cc1ccc(Cl)cc1` [HC-608] the inhibition at 1 µM (GABAB(1b) (h); read-out: % Inhibition 1st) was -9%, the inhibition at 1 µM (GABAB(1b) (h); read-out: % Inhibition 2nd) was -7.8% and the inhibition at 1 µM (GABAB(1b) (h); read-out: % Inhibition Mean) was -8.4%. It also gave an inhibition at 1 µM (H4 (h); read-out: % Inhibition 1st) of -13.6%, an inhibition at 1 µM (H4 (h); read-out: % Inhibition 2nd) of -1.9% and an inhibition at 1 µM (H4 (h); read-out: % Inhibition Mean) of -7.8%. The “% Inhibition 1st” value (TNF-α (h)) was 8.8%, the “% Inhibition 2nd” value (TNF-α (h)) was -8.6% and the “% Inhibition Mean” value (TNF-α (h)) was 0.1%. It also gave an IC50 (human TRPC4 (hTRPC4)) of 32.5 ± 1.8 nM, an inhibition at 1 µM (5-HT1B; read-out: % Inhibition 1st) of -11% and an inhibition at 1 µM (5-HT1B; read-out: % Inhibition 2nd) of -9.4%. For the same compound, the inhibition at 1 µM (5-HT1B; read-out: % Inhibition Mean) was -10.2%, the inhibition at 1 µM (MT1 (ML1A) (h); read-out: % Inhibition 1st) was 2.2% and the inhibition at 1 µM (MT1 (ML1A) (h); read-out: % Inhibition 2nd) was -0.9%. It also gave an inhibition at 1 µM (MT1 (ML1A) (h); read-out: % Inhibition Mean) of 0.7%, an inhibition at 1 µM (5-HT2A (h); read-out: % Inhibition 1st) of -4.3% and an inhibition at 1 µM (5-HT2A (h); read-out: % Inhibition 2nd) of 6.9%. The inhibition at 1 µM (5-HT2A (h); read-out: % Inhibition Mean) was 1.3%, the inhibition at 1 µM (A1 (h); 1.0E-06 M, read-out: % Inhibition 1st) was 22.5% and the inhibition at 1 µM (A1 (h); 1.0E-06 M, read-out: % Inhibition Mean) was 17.4%. The inhibition at 1 µM (A1 (h); read-out: % Inhibition 2nd) was 12.3%.
